# Test results reported in ChEMBL document CHEMBL1671627, “Increasing trends in antimicrobial resistance among clinically important anaerobes and Bacteroides fragilis isolates causing nosocomial infections: emerging resistance to carbapenems” (2008).
# How the values were obtained:
# Bacteroides fragilis [1] = assay: Antibacterial activity against Bacteroides fragilis assessed as susceptible isolates by CLSI agar dilution method; assay type: functional
# Bacteroides fragilis [2] = assay: Antibacterial activity against Bacteroides fragilis assessed as resistant isolates by CLSI agar dilution method; assay type: functional
# [3] = system: Bacteroides thetaiotaomicron; assay: Antibacterial activity against beta-lactamase producing Bacteroides thetaiotaomicron assessed as susceptible isolates by CLSI agar dilution method; assay type: functional
# [4] = system: Bacteroides thetaiotaomicron; assay: Antibacterial activity against beta-lactamase producing Bacteroides thetaiotaomicron assessed as resistant isolates by CLSI agar dilution method; assay type: functional
# Phocaeicola vulgatus [5] = assay: Antibacterial activity against beta-lactamase producing Bacteroides vulgatus by CLSI agar dilution method; assay type: functional
# Phocaeicola vulgatus [6] = assay: Antibacterial activity against beta-lactamase producing Bacteroides vulgatus assessed as susceptible isolates by CLSI agar dilution method; assay type: functional
# Phocaeicola vulgatus [7] = assay: Antibacterial activity against beta-lactamase producing Bacteroides vulgatus assessed as resistant isolates by CLSI agar dilution method; assay type: functional
# Bacteroides uniformis [8] = assay: Antibacterial activity against beta-lactamase producing Bacteroides uniformis by CLSI agar dilution method; assay type: functional
# Bacteroides uniformis [9] = assay: Antibacterial activity against beta-lactamase producing Bacteroides uniformis assessed as susceptible isolates by CLSI agar dilution method; assay type: functional
# Bacteroides uniformis [10] = assay: Antibacterial activity against beta-lactamase producing Bacteroides uniformis assessed as resistant isolates by CLSI agar dilution method; assay type: functional
# Bacteroides caccae [11] = assay: Antibacterial activity against beta-lactamase producing Bacteroides caccae by CLSI agar dilution method; assay type: functional
# Bacteroides caccae [12] = assay: Antibacterial activity against beta-lactamase producing Bacteroides caccae assessed as susceptible isolates by CLSI agar dilution method; assay type: functional
# Bacteroides caccae [13] = assay: Antibacterial activity against beta-lactamase producing Bacteroides caccae assessed as resistant isolates by CLSI agar dilution method; assay type: functional
# Fusobacterium varium [14] = assay: Antibacterial activity against Fusobacterium varium by CLSI agar dilution method; assay type: functional
# Fusobacterium nucleatum [15] = assay: Antibacterial activity against Fusobacterium nucleatum by CLSI agar dilution method; assay type: functional
# Fusobacterium mortiferum [16] = assay: Antibacterial activity against Fusobacterium mortiferum by CLSI agar dilution method; assay type: functional
# [17] = system: Fusobacterium necrophorum; assay: Antibacterial activity against Fusobacterium necrophorum by CLSI agar dilution method; assay type: functional
# Fusobacterium varium [18] = assay: Antibacterial activity against Fusobacterium varium assessed as susceptible isolates by CLSI agar dilution method; assay type: functional
# Fusobacterium nucleatum [19] = assay: Antibacterial activity against Fusobacterium nucleatum assessed as susceptible isolates by CLSI agar dilution method; assay type: functional
# Fusobacterium mortiferum [20] = assay: Antibacterial activity against Fusobacterium mortiferum assessed as susceptible isolates by CLSI agar dilution method; assay type: functional
# [21] = system: Fusobacterium necrophorum; assay: Antibacterial activity against Fusobacterium necrophorum assessed as susceptible isolates by CLSI agar dilution method; assay type: functional
# Fusobacterium varium [22] = assay: Antibacterial activity against Fusobacterium varium assessed as resistant isolates by CLSI agar dilution method; assay type: functional
# Fusobacterium nucleatum [23] = assay: Antibacterial activity against Fusobacterium nucleatum assessed as resistant isolates by CLSI agar dilution method; assay type: functional
# Fusobacterium mortiferum [24] = assay: Antibacterial activity against Fusobacterium mortiferum assessed as resistant isolates by CLSI agar dilution method; assay type: functional
# [25] = system: Fusobacterium necrophorum; assay: Antibacterial activity against Fusobacterium necrophorum assessed as resistant isolates by CLSI agar dilution method; assay type: functional
# Prevotella buccae [26] = assay: Antibacterial activity against Prevotella buccae by CLSI agar dilution method; assay type: functional; details: Segatella buccae
# Prevotella bivia [27] = assay: Antibacterial activity against Prevotella bivia by CLSI agar dilution method; assay type: functional
# Prevotella intermedia [28] = assay: Antibacterial activity against Prevotella intermedia by CLSI agar dilution method; assay type: functional
# [29] = system: Prevotella melaninogenica; assay: Antibacterial activity against Prevotella melaninogenica by CLSI agar dilution method; assay type: functional
# Prevotella buccae [30] = assay: Antibacterial activity against Prevotella buccae assessed as susceptible isolates by CLSI agar dilution method; assay type: functional, Segatella buccae
# Prevotella bivia [31] = assay: Antibacterial activity against Prevotella bivia assessed as susceptible isolates by CLSI agar dilution method; assay type: functional
# Prevotella intermedia [32] = assay: Antibacterial activity against Prevotella intermedia assessed as susceptible isolates by CLSI agar dilution method; assay type: functional
# [33] = system: Prevotella melaninogenica; assay: Antibacterial activity against Prevotella melaninogenica assessed as susceptible isolates by CLSI agar dilution method; assay type: functional
# Prevotella buccae [34] = assay: Antibacterial activity against Prevotella buccae assessed as resistant isolates by CLSI agar dilution method; assay type: functional, Segatella buccae
# Prevotella bivia [35] = assay: Antibacterial activity against Prevotella bivia assessed as resistant isolates by CLSI agar dilution method; assay type: functional
# Prevotella intermedia [36] = assay: Antibacterial activity against Prevotella intermedia assessed as resistant isolates by CLSI agar dilution method; assay type: functional
# [37] = system: Prevotella melaninogenica; assay: Antibacterial activity against Prevotella melaninogenica assessed as resistant isolates by CLSI agar dilution method; assay type: functional
# Veillonella parvula = assay: Antibacterial activity against Veillonella parvula by CLSI agar dilution method; assay type: functional
# Clostridium perfringens = assay: microbe, parasite or virus in culture; assay type: functional
# [38] = system: Clostridium paraputrificum; assay: Antibacterial activity against beta-lactamase producing Clostridium paraputrificum by CLSI agar dilution method; assay type: functional
# Clostridium septicum [39] = assay: Antibacterial activity against beta-lactamase producing Clostridium septicum by CLSI agar dilution method; assay type: functional
# Clostridium tertium [40] = assay: Antibacterial activity against beta-lactamase producing Clostridium tertium by CLSI agar dilution method; assay type: functional
# [41] = system: Clostridium paraputrificum; assay: Antibacterial activity against beta-lactamase producing Clostridium paraputrificum assessed as susceptible isolates by CLSI agar dilution method; assay type: functional
# Clostridium septicum [42] = assay: Antibacterial activity against beta-lactamase producing Clostridium septicum assessed as susceptible isolates by CLSI agar dilution method; assay type: functional
# Clostridium tertium [43] = assay: Antibacterial activity against beta-lactamase producing Clostridium tertium assessed as susceptible isolates by CLSI agar dilution method; assay type: functional
# Bacteroides fragilis [44] = assay: Antibacterial activity against Bacteroides fragilis by CLSI agar dilution method; assay type: functional
# [45] = system: Bacteroides thetaiotaomicron; assay: Antibacterial activity against beta-lactamase producing Bacteroides thetaiotaomicron by CLSI agar dilution method; assay type: functional
# [46] = system: Clostridium paraputrificum; assay: Antibacterial activity against beta-lactamase producing Clostridium paraputrificum assessed as resistant isolates by CLSI agar dilution method; assay type: functional
# Clostridium septicum [47] = assay: Antibacterial activity against beta-lactamase producing Clostridium septicum assessed as resistant isolates by CLSI agar dilution method; assay type: functional
# Clostridium tertium [48] = assay: Antibacterial activity against beta-lactamase producing Clostridium tertium assessed as resistant isolates by CLSI agar dilution method; assay type: functional
# [49] = system: Peptostreptococcus anaerobius; assay: Antibacterial activity against beta-lactamase producing Peptostreptococcus anaerobius by CLSI agar dilution method; assay type: functional
# [50] = system: Peptostreptococcus anaerobius; assay: Antibacterial activity against beta-lactamase producing Peptostreptococcus anaerobius assessed as susceptible isolates by CLSI agar dilution method; assay type: functional
# [51] = system: Peptostreptococcus anaerobius; assay: Antibacterial activity against beta-lactamase producing Peptostreptococcus anaerobius assessed as resistant isolates by CLSI agar dilution method; assay type: functional
# Parvimonas micra [52] = assay: Antibacterial activity against beta-lactamase producing Micromonas micros by CLSI agar dilution method; assay type: functional
# Parvimonas micra [53] = assay: Antibacterial activity against beta-lactamase producing Micromonas micros assessed as susceptible isolates by CLSI agar dilution method; assay type: functional
# Parvimonas micra [54] = assay: Antibacterial activity against beta-lactamase producing Micromonas micros assessed as resistant isolates by CLSI agar dilution method; assay type: functional
# [55] = system: Peptoniphilus asaccharolyticus; assay: Antibacterial activity against beta-lactamase producing Peptoniphilus asaccharolyticus by CLSI agar dilution method; assay type: functional
# [56] = system: Peptoniphilus asaccharolyticus; assay: Antibacterial activity against beta-lactamase producing Peptoniphilus asaccharolyticus assessed as susceptible isolates by CLSI agar dilution method; assay type: functional
# [57] = system: Peptoniphilus asaccharolyticus; assay: Antibacterial activity against beta-lactamase producing Peptoniphilus asaccharolyticus assessed as resistant isolates by CLSI agar dilution method; assay type: functional
# Finegoldia magna [58] = assay: Antibacterial activity against beta-lactamase producing Finegoldia magna by CLSI agar dilution method; assay type: functional
# Finegoldia magna [59] = assay: Antibacterial activity against beta-lactamase producing Finegoldia magna assessed as susceptible isolates by CLSI agar dilution method; assay type: functional
# Finegoldia magna [60] = assay: Antibacterial activity against beta-lactamase producing Finegoldia magna assessed as resistant isolates by CLSI agar dilution method; assay type: functional
structure (smiles),measurement,setting,value
C[C@@H](O)[C@H]1C(=O)N2C(C(=O)O)=C(S[C@@H]3CN[C@H](CNS(N)(=O)=O)C3)[C@H](C)[C@H]12 [DORIPENEM],Activity,Bacteroides fragilis [1],88%
same,Activity,Bacteroides fragilis [2],7%
same,Activity,[3],97%
same,Activity,[4],0%
same,MIC50,Phocaeicola vulgatus [5],1 µg/mL
same,MIC90,Phocaeicola vulgatus [5],2 µg/mL
same,Activity,Phocaeicola vulgatus [6],92%
same,Activity,Phocaeicola vulgatus [7],4%
same,MIC50,Bacteroides uniformis [8],1 µg/mL
same,MIC90,Bacteroides uniformis [8],2 µg/mL
same,Activity,Bacteroides uniformis [9],92%
same,Activity,Bacteroides uniformis [10],4%
same,MIC50,Bacteroides caccae [11],1 µg/mL
same,MIC90,Bacteroides caccae [11],2 µg/mL
same,Activity,Bacteroides caccae [12],92%
same,Activity,Bacteroides caccae [13],4%
same,MIC50,Fusobacterium varium [14],0.12 µg/mL
same,MIC90,Fusobacterium varium [14],0.25 µg/mL
same,MIC50,Fusobacterium nucleatum [15],0.12 µg/mL
same,MIC90,Fusobacterium nucleatum [15],0.25 µg/mL
same,MIC50,Fusobacterium mortiferum [16],0.12 µg/mL
same,MIC90,Fusobacterium mortiferum [16],0.25 µg/mL
same,MIC50,[17],0.12 µg/mL
same,MIC90,[17],0.25 µg/mL
same,Activity,Fusobacterium varium [18],100%
same,Activity,Fusobacterium nucleatum [19],100%
same,Activity,Fusobacterium mortiferum [20],100%
same,Activity,[21],100%
same,Activity,Fusobacterium varium [22],0%
same,Activity,Fusobacterium nucleatum [23],0%
same,Activity,Fusobacterium mortiferum [24],0%
same,Activity,[25],0%
same,MIC50,Prevotella buccae [26],0.25 µg/mL
same,MIC90,Prevotella buccae [26],0.5 µg/mL
same,MIC50,Prevotella bivia [27],0.25 µg/mL
same,MIC90,Prevotella bivia [27],0.5 µg/mL
same,MIC50,Prevotella intermedia [28],0.25 µg/mL
same,MIC90,Prevotella intermedia [28],0.5 µg/mL
same,MIC50,[29],0.25 µg/mL
same,MIC90,[29],0.5 µg/mL
same,Activity,Prevotella buccae [30],100%
same,Activity,Prevotella bivia [31],100%
same,Activity,Prevotella intermedia [32],100%
same,Activity,[33],100%
same,Activity,Prevotella buccae [34],0%
same,Activity,Prevotella bivia [35],0%
same,Activity,Prevotella intermedia [36],0%
same,Activity,[37],0%
same,MIC,Veillonella parvula,0.06 µg/mL
same,MIC,Clostridium perfringens,0.03 µg/mL
same,MIC50,Clostridium perfringens,0.03 µg/mL
same,MIC90,Clostridium perfringens,2 µg/mL
same,MIC,[38],0.03 µg/mL
same,MIC50,[38],0.03 µg/mL
same,MIC90,[38],2 µg/mL
same,MIC,Clostridium septicum [39],0.03 µg/mL
same,MIC50,Clostridium septicum [39],0.03 µg/mL
same,MIC90,Clostridium septicum [39],2 µg/mL
same,MIC,Clostridium tertium [40],0.03 µg/mL
same,MIC50,Clostridium tertium [40],0.03 µg/mL
same,MIC90,Clostridium tertium [40],2 µg/mL
same,Activity,[41],100%
same,Activity,Clostridium septicum [42],100%
same,Activity,Clostridium tertium [43],100%
same,MIC50,Bacteroides fragilis [44],0.5 µg/mL
same,MIC90,Bacteroides fragilis [44],8 µg/mL
same,MIC,[45],0.5 µg/mL
same,MIC50,[45],0.5 µg/mL
same,MIC90,[45],2 µg/mL
same,Activity,[46],0%
same,Activity,Clostridium septicum [47],0%
same,Activity,Clostridium tertium [48],0%
same,MIC50,[49],0.06 µg/mL
same,MIC90,[49],0.5 µg/mL
same,Activity,[50],100%
same,Activity,[51],0%
same,MIC50,Parvimonas micra [52],0.06 µg/mL
same,MIC90,Parvimonas micra [52],0.5 µg/mL
same,Activity,Parvimonas micra [53],100%
same,Activity,Parvimonas micra [54],0%
same,MIC50,[55],0.06 µg/mL
same,MIC90,[55],0.5 µg/mL
same,Activity,[56],100%
same,Activity,[57],0%
same,MIC50,Finegoldia magna [58],0.06 µg/mL
same,MIC90,Finegoldia magna [58],0.5 µg/mL
same,Activity,Finegoldia magna [59],100%
same,Activity,Finegoldia magna [60],0%
